Results on 5 compounds are retold here after patent US20080255224A1, “PHARM[…] OF PSORIASIS” (priority 2007, published 2008).

For data set [1], the system named is epidermal keratinocyte differentiation. The settings on record: cited from earlier work.
For data set [2], the system named is keratinocyte proliferation. The settings on record: in vitro; cited from earlier work.
In another data set the test system is psoriasis. Description: Oral nabilone in a patient suffering from psoriasis, inpatient, unblinded. The class given is in vivo, human. On the procedure: A patient suffering from psoriasis was treated with oral nabilone on an inpatient, unblinded basis. The patient suffered from psoriasis which had not responded well to prior drug treatments. To assess whether nabilone was beneficial in alleviating symptoms, nabilone at a dose of 1 mg was added to all other anti-inflammatory and anti-psoriatic medications. The results were dramatic. The regimen administered was a 0.5 mg dosage twice daily for four days, and then 1 mg twice daily for five days and eventually 1 mg daily was administered to the patient. Itch which had been intolerable and incessant abolished with the 1st dose. By the 10th day of therapy the skin redness had disappeared.

The conditions of data set [3]: prior use for nausea and vomiting of chemotherapy; cited from earlier work.

As for `CCCCC/C=C\C/C=C\C/C=C\C/C=C\CCCC(=O)NCCO` [Anadamide], the “Effect on epidermal keratinocyte differentiation” value in data set [1] is on record as “inhibits”.

On to `COc1ccc2c(c1)c(CC(=O)N1CCOCC1)c(C)n2C(=O)c1ccc(Cl)cc1` [BML 190], for which, in data set [2], the “Inhibition of keratinocyte proliferation” value is recorded as “only partial inhibition”. In the case of `CCCCCCC(C)(C)c1cc(O)c2c(c1)OC(C)(C)[C@@H]1CC=C(CO)C[C@@H]21` [HU210], the “Inhibition of keratinocyte proliferation” value in data set [2] is listed as “concentration-dependent response”.

Take `CCCn1c(C)c(C(=O)c2cccc3ccccc23)c2ccccc21` [JWH015]: in data set [2], the “Inhibition of keratinocyte proliferation” value is “only partial inhibition”. Regarding `CCCCCCC(C)(C)c1cc(O)c2c(c1)OC(C)(C)C1CCC(=O)CC21` (centres unmarked) [nabilone], the Itch entry with psoriasis (oral nabilone added to all other anti-inflammatory and anti-psoriatic medications, with the 1st dose (0.5 mg)) is “abolished”. Moreover, the Skin redness result in the data set with psoriasis (oral, by the 10th day of therapy (0.5 mg twice daily for four days, then 1 mg twice daily for five days, then 1 mg daily)) is given as “disappeared”. Further, in data set [3], the Immunosuppressive potential entry is listed as “does not show immunosuppressive potential” and the Tolerability result is listed as “well tolerated”.
